Measured values from ChEMBL document CHEMBL1255340, “In vitro activities of the Rx-01 oxazolidinones against hospital and community pathogens” (2008).
≈ marks a conversion by molar mass, not a printed value. Where “and” joins values, the source holds several entries; their conditions need not be identical. Equal entries are not always repeated.

What was measured:
Type in all cases: functional
Enterococcus faecium [1] = experiment: Antimicrobial activity against Enterococcus faecium A5960
Enterococcus faecium [2] = experiment: Antimicrobial activity against Enterococcus faecium A9621 by broth microdilution method
Staphylococcus capitis = experiment: Antimicrobial activity against Staphylococcus capitis A8935
Staphylococcus aureus [3] = experiment: Antimicrobial activity against Staphylococcus aureus A7819 harboring G2576U mutation in 23S rRNA
Staphylococcus aureus [4] = experiment: Antimicrobial activity against Staphylococcus aureus A7820
[5] = tested on: Staphylococcus epidermidis; experiment: Antimicrobial activity against Staphylococcus epidermidis A8934
Streptococcus pneumoniae [6] = experiment: Antimicrobial activity against Streptococcus pneumoniae harboring erm(B) gene by broth microdilution method
Staphylococcus aureus [7] = experiment: Antimicrobial activity against methicillin-resistant Staphylococcus aureus BK 11118
Enterococcus faecium [8] = experiment: Antimicrobial activity against Enterococcus faecium A8130
Haemophilus influenzae [9] = experiment: Antimicrobial activity against Haemophilus influenzae A1950 assessed as log reduction in bacterial growth at 8 times MIC after 24 hrs by time-kill assay
Staphylococcus aureus [10] = experiment: Antimicrobial activity against Staphylococcus aureus A7817
Streptococcus pyogenes = experiment: Antimicrobial activity against Streptococcus pyogenes
Streptococcus pneumoniae [11] = experiment: Antimicrobial activity against Streptococcus pneumoniae 02J1175 assessed as log reduction in bacterial growth at 4 times MIC after 24 hrs by time-kill assay
Enterococcus faecium [12] = experiment: Antimicrobial activity against Enterococcus faecium A6349
Staphylococcus aureus [13] = experiment: Antimicrobial activity against Staphylococcus aureus A8727
Enterococcus faecalis [14] = experiment: Antimicrobial activity against Enterococcus faecalis A6350
Staphylococcus aureus [15] = experiment: Antimicrobial activity against methicillin-susceptible Staphylococcus aureus nosocomial isolate
Enterococcus faecium [16] = experiment: Antimicrobial activity against Enterococcus faecium A9650
Streptococcus pneumoniae [17] = experiment: Antimicrobial activity against Streptococcus pneumoniae 02J1258 assessed as log reduction in bacterial growth at 4 times MIC after 24 hrs by time-kill assay
Staphylococcus aureus [18] = experiment: Antimicrobial activity against Staphylococcus aureus pL150
Staphylococcus aureus [19] = experiment: Antimicrobial activity against methicillin-resistant Staphylococcus aureus BK 11512
Streptococcus pneumoniae [20] = experiment: Antimicrobial activity against Streptococcus pneumoniae harboring erm(B) and mef(A) gene
Staphylococcus hominis = experiment: Antimicrobial activity against Staphylococcus hominis A7828
Enterococcus faecium [21] = experiment: Antimicrobial activity against Enterococcus faecium A6349 harboring G2576U mutation in 23S rRNA
Enterococcus faecalis [22] = experiment: Antimicrobial activity against Enterococcus faecalis A7789
Moraxella catarrhalis = experiment: Antimicrobial activity against Moraxella catarrhalis
Enterococcus faecalis [23] = experiment: Antimicrobial activity against Enterococcus faecalis ATCC 29212
Streptococcus pneumoniae [24] = experiment: Antimicrobial activity against Streptococcus pneumoniae 02J1175
Staphylococcus aureus [25] = experiment: Antimicrobial activity against Staphylococcus aureus A8831 harboring U2500A mutation in 23S rRNA
Streptococcus pneumoniae [26] = experiment: Antimicrobial activity against Streptococcus pneumoniae PU1071099 harboring 65WR66 deletion in ribosomal protein L4 by broth microdilution method
Staphylococcus aureus [27] = experiment: Antimicrobial activity against methicillin resistant Staphylococcus aureus 67-0
Streptococcus pneumoniae [28] = experiment: Antimicrobial activity against Streptococcus pneumoniae ribosomal mutant
Enterococcus faecium [29] = experiment: Antimicrobial activity against Enterococcus faecium A8948
Streptococcus pneumoniae [30] = experiment: Antimicrobial activity against Streptococcus pneumoniae 02J1258 assessed as log reduction in bacterial growth at 8 times MIC after 24 hrs by time-kill assay
Staphylococcus aureus [31] = experiment: Antimicrobial activity against Staphylococcus aureus A8761
Enterococcus faecium [32] = experiment: Antimicrobial activity against Enterococcus faecium A8767
Staphylococcus aureus [33] = experiment: Antimicrobial activity against Staphylococcus aureus pLXM1 harboring cfr gene
Enterococcus faecium [34] = experiment: Antimicrobial activity against Enterococcus faecium A6345
Enterococcus faecalis [35] = experiment: Antimicrobial activity against vancomycin-resistant Enterococcus faecalis 03B1069
Haemophilus influenzae [36] = experiment: Antimicrobial activity against Haemophilus influenzae 54A1100
Enterococcus faecium [37] = experiment: Antimicrobial activity against Enterococcus faecium A6348 harboring G2576U mutation in 23S rRNA
Enterococcus faecalis [38] = experiment: Antimicrobial activity against vancomycin-resistant Enterococcus faecalis nosocomial isolate
Enterococcus faecalis [39] = experiment: Antimicrobial activity against Enterococcus faecalis ATCC 29212-P5 harboring G2576U mutation in 23S rRNA
Haemophilus influenzae [40] = experiment: Antimicrobial activity against Haemophilus influenzae 54A1100 assessed as log reduction in bacterial growth at 8 times MIC after 24 hrs by time-kill assay
Haemophilus influenzae [41] = experiment: Antimicrobial activity against Haemophilus influenzae A1950 assessed as log reduction in bacterial growth at 4 times MIC after 24 hrs by time-kill assay
Haemophilus influenzae [42] = experiment: Antimicrobial activity against Haemophilus influenzae A1950
Staphylococcus aureus [43] = experiment: Antimicrobial activity against Staphylococcus aureus A8833 harboring U2500A mutation in 23S rRNA
Staphylococcus aureus [44] = experiment: Antimicrobial activity against Staphylococcus aureus ATCC 29213
Enterococcus faecium [45] = experiment: Antimicrobial activity against Enterococcus faecium A5959
Haemophilus influenzae [46] = experiment: Antimicrobial activity against Haemophilus influenzae 54A1100 assessed as log reduction in bacterial growth at 4 times MIC after 24 hrs by time-kill assay
Streptococcus pneumoniae [47] = experiment: Antimicrobial activity against Streptococcus pneumoniae 02J1258
Enterococcus faecalis [48] = experiment: Antimicrobial activity against Enterococcus faecalis A5962
Streptococcus pneumoniae [49] = experiment: Antimicrobial activity against Streptococcus pneumoniae 02J1175 assessed as log reduction in bacterial growth at 8 times MIC after 24 hrs by time-kill assay
Enterococcus faecalis [50] = experiment: Antimicrobial activity against Enterococcus faecalis A6343
Enterococcus faecium [51] = experiment: Antimicrobial activity against vancomycin-resistant Enterococcus faecium nosocomial isolate
Enterococcus faecium [52] = experiment: Antimicrobial activity against vancomycin-susceptible Enterococcus faecium nosocomial isolate by broth microdilution method
[53] = Streptococcus pneumoniae, read-out: MIC

## CC(=O)NC[C@H]1CN(c2ccc(-c3ccc(CNCCCF)cc3)c(F)c2)C(=O)O1
Enterococcus faecium [1]
  MIC: 4 µg/mL (≈ 9.58 µM)
Enterococcus faecium [2]
  MIC: 4 µg/mL (≈ 9.58 µM)
Staphylococcus capitis
  MIC: 1 µg/mL (≈ 2.4 µM)
Staphylococcus aureus [3]
  MIC: 16 µg/mL (≈ 38.3 µM)
Staphylococcus aureus [4]
  MIC: 16 µg/mL (≈ 38.3 µM)
[5]
  MIC: 4 µg/mL (≈ 9.58 µM)
Streptococcus pneumoniae [6]; [53]
  MIC: ≤ 0.25 µg/mL
Staphylococcus aureus [7]
  MIC: 1 µg/mL (≈ 2.4 µM)
Enterococcus faecium [8]
  MIC: 2 µg/mL (≈ 4.79 µM)
Haemophilus influenzae [9]
  FC: >3
Staphylococcus aureus [10]
  MIC: 16 µg/mL (≈ 38.3 µM)
Streptococcus pyogenes
  MIC: 0.25 µg/mL (≈ 0.599 µM)
Streptococcus pyogenes; Streptococcus pyogenes, read-out: MIC
  MIC: 0.125 µg/mL (≈ 0.299 µM)
Streptococcus pneumoniae [11]
  FC: >3
Enterococcus faecium [12]
  MIC: 1 µg/mL (≈ 2.4 µM)
Staphylococcus aureus [13]
  MIC: 4 µg/mL (≈ 9.58 µM)
Enterococcus faecalis [14]
  MIC: 1 µg/mL (≈ 2.4 µM)
Staphylococcus aureus [15]
  MIC: 1 µg/mL (≈ 2.4 µM)
Staphylococcus aureus [15]; Staphylococcus aureus, read-out: MIC
  MIC: 0.5 µg/mL (≈ 1.2 µM)
Enterococcus faecium [16]
  MIC: 1 µg/mL (≈ 2.4 µM)
Streptococcus pneumoniae [17]
  FC: >3
Staphylococcus aureus [18]
  MIC: 0.5 µg/mL (≈ 1.2 µM)
Staphylococcus aureus [19]
  MIC: 2 µg/mL (≈ 4.79 µM)
Streptococcus pneumoniae [20]
  MIC: ≤ 0.25 µg/mL
Staphylococcus hominis
  MIC: 4 µg/mL (≈ 9.58 µM)
Enterococcus faecium [21]
  MIC: 1 µg/mL (≈ 2.4 µM)
Enterococcus faecalis [22]
  MIC: 4 µg/mL (≈ 9.58 µM)
Moraxella catarrhalis
  MIC: 2 µg/mL (≈ 4.79 µM)
Moraxella catarrhalis; Moraxella catarrhalis, read-out: MIC
  MIC: 1 µg/mL (≈ 2.4 µM)
Enterococcus faecalis [23]
  MIC: 1 µg/mL (≈ 2.4 µM)
Streptococcus pneumoniae [24]
  MIC: 0.125 µg/mL (≈ 0.299 µM)
Staphylococcus aureus [25]
  MIC: 64 µg/mL (≈ 153 µM)
Streptococcus pneumoniae [26]
  MIC: 0.5 µg/mL (≈ 1.2 µM)
Staphylococcus aureus [27]
  MIC: 1 µg/mL (≈ 2.4 µM)
Streptococcus pneumoniae [28]
  MIC: ≤ 0.25 µg/mL
Enterococcus faecium [29]
  MIC: 0.5 µg/mL (≈ 1.2 µM)
Streptococcus pneumoniae [30]
  FC: >3
Staphylococcus aureus [31]
  MIC: 8 µg/mL (≈ 19.2 µM)
Enterococcus faecium [32]
  MIC: 2 µg/mL (≈ 4.79 µM)
Staphylococcus aureus [33]
  MIC: 1 µg/mL (≈ 2.4 µM)
Enterococcus faecium [34]
  MIC: 4 µg/mL (≈ 9.58 µM)
Enterococcus faecalis [35]
  MIC: 0.5 µg/mL (≈ 1.2 µM)
Haemophilus influenzae [36]
  MIC: 2 µg/mL (≈ 4.79 µM)
Enterococcus faecium [37]
  MIC: 4 µg/mL (≈ 9.58 µM)
Enterococcus faecalis [38]
  MIC: 0.5 µg/mL (≈ 1.2 µM)
Enterococcus faecalis [38]; Enterococcus faecalis, read-out: MIC
  MIC: ≤ 0.25 µg/mL
Enterococcus faecalis [39]
  MIC: 2 µg/mL (≈ 4.79 µM)
Haemophilus influenzae [40]
  FC: >3
Haemophilus influenzae [41]
  FC: >3
Haemophilus influenzae [42]
  MIC: 4 µg/mL (≈ 9.58 µM)
Staphylococcus aureus [43]
  MIC: 32 µg/mL (≈ 76.7 µM)
Staphylococcus aureus [44]
  MIC: 2 µg/mL (≈ 4.79 µM)
Enterococcus faecium [45]
  MIC: 4 µg/mL (≈ 9.58 µM)
Haemophilus influenzae [46]
  FC: >3
Streptococcus pneumoniae [47]
  MIC: 0.25 µg/mL (≈ 0.599 µM)
Enterococcus faecalis [48]
  MIC: 4 µg/mL (≈ 9.58 µM)
Streptococcus pneumoniae [49]
  FC: >3
Enterococcus faecalis [50]
  MIC: 2 µg/mL (≈ 4.79 µM)

## CC[C@H]1OC(=O)[C@H](C)[C@@H](O[C@H]2C[C@@](C)(OC)[C@@H](O)[C@H](C)O2)[C@H](C)[C@@H](O[C@@H]2O[C@H](C)C[C@H](N(C)C)[C@H]2O)[C@](C)(O)C[C@@H](C)CN(C)[C@H](C)[C@@H](O)[C@]1(C)O [AZITHROMYCIN]
Enterococcus faecium [1]
  MIC: > 128 µg/mL
Enterococcus faecium [2]
  MIC: 16 µg/mL (≈ 21.4 µM)
Staphylococcus capitis
  MIC: 64 µg/mL (≈ 85.4 µM)
Staphylococcus aureus [3]
  MIC: 2 µg/mL (≈ 2.67 µM)
Staphylococcus aureus [4]
  MIC: > 128 µg/mL
[5]
  MIC: > 128 µg/mL
Streptococcus pneumoniae [6]; [53]
  MIC: > 128 µg/mL
Staphylococcus aureus [7]
  MIC: > 128 µg/mL
Enterococcus faecium [8]
  MIC: 4 µg/mL (≈ 5.34 µM)
Staphylococcus aureus [10]
  MIC: 1 µg/mL (≈ 1.34 µM)
Streptococcus pyogenes
  MIC: 0.03 µg/mL and 0.06 µg/mL
Enterococcus faecium [12]
  MIC: > 128 µg/mL
Staphylococcus aureus [13]
  MIC: 16 µg/mL (≈ 21.4 µM)
Enterococcus faecalis [14]
  MIC: 4 µg/mL (≈ 5.34 µM)
Enterococcus faecium [16]
  MIC: > 128 µg/mL
Staphylococcus aureus [18]
  MIC: 0.25 µg/mL (≈ 0.334 µM)
Staphylococcus aureus [19]
  MIC: > 128 µg/mL
Staphylococcus hominis
  MIC: > 128 µg/mL
Enterococcus faecalis [22]
  MIC: > 128 µg/mL
Enterococcus faecalis [23]
  MIC: 8 µg/mL (≈ 10.7 µM)
Streptococcus pneumoniae [24]
  MIC: 32 µg/mL (≈ 42.7 µM)
Staphylococcus aureus [25]
  MIC: > 128 µg/mL
Streptococcus pneumoniae [26]
  MIC: 4 µg/mL (≈ 5.34 µM)
Staphylococcus aureus [27]
  MIC: > 128 µg/mL
Enterococcus faecium [29]
  MIC: > 128 µg/mL
Staphylococcus aureus [31]
  MIC: > 128 µg/mL
Enterococcus faecium [32]
  MIC: > 128 µg/mL
Staphylococcus aureus [33]
  MIC: 0.5 µg/mL (≈ 0.668 µM)
Enterococcus faecium [34]
  MIC: 2 µg/mL (≈ 2.67 µM)
Enterococcus faecalis [35]
  MIC: > 128 µg/mL
Haemophilus influenzae [36]
  MIC: 1 µg/mL (≈ 1.34 µM)
Enterococcus faecium [37]
  MIC: > 128 µg/mL
Enterococcus faecalis [39]
  MIC: 8 µg/mL (≈ 10.7 µM)
Haemophilus influenzae [42]
  MIC: 4 µg/mL (≈ 5.34 µM)
Staphylococcus aureus [43]
  MIC: > 128 µg/mL
Staphylococcus aureus [44]
  MIC: 1 µg/mL (≈ 1.34 µM)
Enterococcus faecium [45]
  MIC: 8 µg/mL (≈ 10.7 µM)
Streptococcus pneumoniae [47]
  MIC: > 128 µg/mL
Enterococcus faecalis [48]
  MIC: > 128 µg/mL
Enterococcus faecalis [50]
  MIC: > 128 µg/mL

## CCC[C@@H]1C[C@@H](C(=O)N[C@@H]([C@H]2O[C@H](SC)[C@H](O)[C@@H](O)[C@H]2O)[C@H](C)Cl)N(C)C1 [CLINDAMYCIN]
Streptococcus pneumoniae [6]
  MIC: >128 µg/mL
Streptococcus pneumoniae [6]; [53]
  MIC: > 64 µg/mL

## GENTAMICIN
Enterococcus faecium [51]
  MIC: > 128 µg/mL
Enterococcus faecium [52]
  MIC: > 128 µg/mL
Enterococcus faecalis [38]
  MIC: > 128 µg/mL
